Here are results for one molecule from patent publication US6395745B1, “Alkaloid halide salts of swainsonine and methods of use” (priority 1997, dated 2002).

The subject of one data set is STAT1. Description: STAT1 level and activation in mice (Western blot, immunoblotting). The class given is in vivo, DBA/2 mice.
Data set [1] can be described thus: Accelerated stability of stressed solid samples, percentage remaining by HPLC. The data set is classed as physicochemical. The text has this:
Samples of swainsonine free base synthesized using synthetic routes developed by Dr. David Dime (Toronto Research Chemicals, Toronto, Ontario) and Dr. William Pearson (University of Michigan, Ann Arbor, Mich.), were recrystallized to obtain either the hydrochloride salt, the hydrobromide salt or the free base of swainsonine. Samples were weighed and exposed to the conditions described below.
To model long-term stability or shelf life, various conditions were used to accelerate the decomposition process. Samples of crystalline prism swainsonine hydrochloride salt and swainsonine free base (a white, fluffy powder obtained from swainsonine hydrochloride were recrystallized from chloroform-methanol-diethyl ether) were weighed and exposed to conditions described below (stressed samples). Unstressed samples were prepared at 1 mg/ml concentration and chromatographed in sextuplicate on each run. After the indicated time interval each stressed sample was diluted with mobile phase at the same concentration as the unstressed sample. The percentage remaining swainsonine hydrochloride or swainsonine free base was calculated based on the percentage of either the hydrochloride or the free base in the unstressed sample.
The conditions included (a) UV light for 7 days; (b) 105° C. with atmospheric oxygen for seven days (*=average of two samples); (c) 105° C. under nitrogen for seven days (*=average of two samples); (d) 70° C. with low humidity for seven days; and (e) 40° C. with 75% relative humidity for seven days. Other tests include (f) UV for 24 hours; (g) 100° C. aqueous solution for two hours; (h) aqueous acidic treatment for 24 hours; (i) aqueous alkali treatment for 4 hours; and (j) (aqueous) 3% hydrogen peroxide for 4 hours. […] The physical properties of swainsonine hydrochloride compared to the free base and swainsonine hydrobromide, and swainsonine hydrofluoride are shown in Table 5.

The test system of the next data set is STAT3. Description: STAT3 level in mice (Western blot). The data set is classed as in vivo, DBA/2 mice. The settings on record: 20 μg/day ip, spleen. As to the method:
To measure the level and activation of STATs, DBA/2 mice are treated for 6-9 days with 20 μg/mouse/day of swainsonine hydrochloride followed by a single intraperitoneal (i.p) injection of either sterile saline or 100 μg of poly IC (i.e., dsRNA, a surrogate for virus) in sterile saline. Two hours later an optimal time for STAT activation, spleens of the mice are homogenized and cytosolic and nuclear cell extracts are prepared. STAT protein levels are measured in the cytosolic and nuclear fractions by Western blot analysis. STAT phosphorylation (i.e. activation) is measured following immunoprecipitation using anti-phosphotyrosine antibodies.
In general terms: In western blotting, separated proteins are transferred to a membrane and probed.

The target of data set [2] is T1, purified rat liver Golgi mannosidase II (Rattus norvegicus, UniProt P28494).
T1 construct: 15 μl of purified rat liver Golgi mannosidase II; from tissue; host or cells: rat liver
T1 sequence (P28494 1-1148): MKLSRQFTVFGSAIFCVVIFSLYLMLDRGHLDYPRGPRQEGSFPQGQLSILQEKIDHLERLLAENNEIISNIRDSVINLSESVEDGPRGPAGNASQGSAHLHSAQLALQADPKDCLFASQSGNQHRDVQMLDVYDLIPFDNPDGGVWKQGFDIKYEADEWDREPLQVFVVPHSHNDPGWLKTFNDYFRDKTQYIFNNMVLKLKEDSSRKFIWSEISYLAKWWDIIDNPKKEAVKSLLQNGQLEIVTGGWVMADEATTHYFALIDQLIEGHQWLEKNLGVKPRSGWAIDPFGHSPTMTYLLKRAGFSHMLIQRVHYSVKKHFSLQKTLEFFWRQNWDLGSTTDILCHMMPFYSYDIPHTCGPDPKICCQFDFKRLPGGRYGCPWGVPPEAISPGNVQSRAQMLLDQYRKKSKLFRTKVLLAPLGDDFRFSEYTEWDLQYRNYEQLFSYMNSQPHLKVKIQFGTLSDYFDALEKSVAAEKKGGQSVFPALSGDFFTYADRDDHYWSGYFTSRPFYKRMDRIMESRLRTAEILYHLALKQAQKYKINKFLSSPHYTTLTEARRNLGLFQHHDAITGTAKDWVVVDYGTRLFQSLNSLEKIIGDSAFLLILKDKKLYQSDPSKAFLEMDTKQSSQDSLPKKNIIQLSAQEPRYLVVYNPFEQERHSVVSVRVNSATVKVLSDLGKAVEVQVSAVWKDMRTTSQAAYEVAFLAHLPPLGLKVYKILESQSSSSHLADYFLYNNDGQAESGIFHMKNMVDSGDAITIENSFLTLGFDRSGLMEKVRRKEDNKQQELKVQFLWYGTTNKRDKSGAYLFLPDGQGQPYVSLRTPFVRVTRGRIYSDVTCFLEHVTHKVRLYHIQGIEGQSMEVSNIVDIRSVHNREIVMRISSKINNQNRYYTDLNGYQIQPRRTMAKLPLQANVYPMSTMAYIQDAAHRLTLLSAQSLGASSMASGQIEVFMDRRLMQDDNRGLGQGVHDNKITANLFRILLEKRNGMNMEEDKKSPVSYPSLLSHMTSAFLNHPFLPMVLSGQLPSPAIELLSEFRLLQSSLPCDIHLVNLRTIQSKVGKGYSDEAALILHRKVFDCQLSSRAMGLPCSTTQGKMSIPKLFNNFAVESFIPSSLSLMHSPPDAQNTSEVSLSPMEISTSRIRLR
Description: Inhibition of purified Golgi mannosidase II in vitro (p-nitrophenyl mannopyranoside). The data set is classed as biochemical. As to conditions: pH 5.6, 60 minutes at 37° C. As to the method: The test compound swainsonine is prepared by 0.4 serial dilution of a 40 μM stock. Present in each determination is 10 μl diluted test compound, 25 μl of 10 mM paranitrophenyl mannopyranoside, 200 mM sodium acetate, pH 5.6 and 15 μl of purified rat liver Golgi mannosidase II. After incubating the reaction for 60 minutes at 37° C., the reaction is quenched with 50 μl of 0.5 M sodium carbonate. Absorption is read at […]. After subtracting the blank from positive controls and samples, the samples are normalized against the positive control mean using a variable slope, sigmoidal curve fit, with bottom=0, top=100. The signal is proportional to the amount of products from the uninhibited reaction.

The nature of data set [3]: Toxicology studies (acute and chronic). The class given is in vivo. As to the method: Pharmacological and toxicological studies were conducted with swainsonine hydrochloride. In particular, the following were investigated: (a) pharmacokinetics of the compound in rats and monkeys; (b) acute toxicity at significant multiples of the intended human dose; (c) the toxicity profile of the compound was compared to the literature profile for swainsonine free base; (d) potential for genotoxicity; (e) time course, dose-dependence, tissue sensitivity and reversibility of oligosaccharide accumulation in tissue; and (f) serum AST and relationship to liver histology.

Description for STAT1: DBA/2 mice received daily ip injections of SW hydrochloride (20 μg/day) for 10 days. On day 11 the mice were injected with Poly IC (100 μg/mouse) or an equivalent volume of PBS 2 h before being sacrificed. Spleen and liver tissues were collected and immediately frozen in liquid nitrogen. Nuclear extracts were prepared and analyzed (8 μg) by immunoblotting with the indicated antibodies. […] Cytosol extracts were prepared and analyzed (20 μg) by immunoblotting with the indicated antibodies. Spleen nuclear extracts were prepared and analyzed (8 μg) by immunoblotting with anti-phosphotyrosine antibodies.

As usually defined, the IC50 is the concentration that gives 50% inhibition. A low value points to higher potency. In the case of `Cl.O[C@H]1[C@H]2[C@H](O)CCCN2C[C@@H]1O` [swainsonine hydrochloride, (−)-(1S,2S,8R,8aR)-1,2,8-trihydroxyoctahydro-indolizidine hydrochloride salt], the “activation of STAT1 in spleen” value in the data set with STAT1 (20 μg/day ip for 10 days, then Poly IC 100 μg/mouse, FIG. 10A) is “increases the activation”. Moreover, the “STAT1 cytosolic protein levels” value with STAT1 (20 μg/day ip, spleen) is recorded as “enhanced”. In addition, in data set [1] (40° C. with 75% relative humidity for seven days), the “percentage remaining, condition (e)” value is listed as 101.9%. The “percentage remaining, condition (d)” value in data set [1] (70° C. with low humidity for seven days) was 103.2%. Also, in data set [1] (105° C. under nitrogen for seven days (*=average of two samples)), the “percentage remaining, condition (c)” value came out at 101.2%. Also, the “percentage remaining, condition (b)” value in data set [1] (105° C. with atmospheric oxygen for seven days (*=average of two samples)) stood at 100.9%. The “percentage remaining, condition (a)” value in data set [1] (UV light for 7 days) was found to be 99.4%. Also, the “STAT3 cytosolic protein levels” value in the data set with STAT3 is on record as “remained unchanged”. For the same molecule, the concentration for half-maximal inhibition (IC50) in data set [2] turned out to be 0.068 ± 0.021 µM. In data set [3] (acute toxicity), the “dose at which acute toxicity occurs” value is on record as 13,000 times the intended human dose. Moreover, the “sites of oligomannoside accumulation in lysosomes” value in data set [3] (chronic studies, doses proposed for humans) was “thyroid and also possibly the kidney could be the sites of reversible accumulation”.
